In patent US20070218023A1, “Uses of melatonin in skin” (priority 2006, published 2007):
“Also recorded” adds a separate entry of the source.

Legend:
HaCaT keratinocytes [1] = assay: Kinetics of melatonin metabolism in untreated keratinocytes (intracellular levels); format: in vitro ADME, human; details: not preincubated with melatonin, no UV; for intracellular level in untreated keratinocytes after 24 hrs: cultivation for 24 hrs
Procedure: (§1) Parallel control dishes were incubated with PBS without melatonin.
(§2) Aliquots ([…]) of samples from the cell suspension and cell-free experiments were separated on an LC-MS QP8000a (Shimadzu, Japan) equipped with diode array and single quadrupole mass-spectrometric detectors. The separation system consisted of a Restec Allure C18 reverse-phase column (150×4.6 mm; 5 μm particle size; and 60 A pore size) with mobile phase consisting of 25% acetonitrile and 0.1% acetic acid. Elution was carried out isocratically at flow rate of 0.75 ml/min and temperature of 40° C. The eluent was routed to the mass-spectrometric electrospray interface (ESI) set in positive mode and using nitrogen as the nebulizing gas. Mass-spectrometry parameters were as follows: nebulizer gas flow rate, 4.5 l/min; electrospray voltage, 4.5 kV; and curved desolvation line (CDL) heater temperature, 250° C. The selected ion monitoring (SIM) mode was used to detect ions with m/z=249 (monohydroxymelatonin); m/z=265 (dihydroxymelatonin and AFMK); m/z=237 (AMK); and m/z=233 (melatonin). System control and data acquisition were performed with the LC-MS workstation Class-8000 software (Shimadzu, Japan).

HaCaT keratinocytes [2] = assay: Melatonin and metabolites in supernatants and cell lysates of UV-irradiated HaCaT keratinocytes (HPLC, LC-MS); format: in vitro ADME, human
Procedure: as §1
(§3) Internal standards for HPLC were dissolved in absolute ethanol. […] AFMK was produced as described previously (48).
(§4) Irradiation experiments were performed with a Biorad UV transluminator 2000 (Bio-RAD Laboratories, Hercules, Calif.), calibrated as described previously (37). Briefly, a scanning double monochromator spectroradiometer (Model OL 754, Optronic Laboratories, Orlando, Fla.) was used to scan emission of wavelengths from 250 to 800 nm at 1 nm increments. The spectroradiometer had been calibrated with an NIST traceable tungsten-halogen spectral irradiance standard (Model 75-10E, Optronic Laboratories, Orlando, Fla.) with a precision current source (Model 65, Optronic Laboratories, Orlando, Fla.). An additional calibration module (Model 752-150, Optronic Laboratories, Orlando, Fla.) measured both photometric gain and wavelength accuracy. Wavelength calibration and gain were established or verified before each experimental use. The UV source emission (shown in FIG. 1) consisted primarily of UVB light (wavelength 280-320 nm; 60%), with minor output in the UVA (320-400 nm) and UVC (120-280 nm) range (˜30% and ˜10%, respectively). Melatonin photoproducts generation was performed after irradiation at the UV doses of 25, 50, 75 or 100 mJ/cm^2, as indicated in the figures.
as §2

[3] = UVR irradiation of melatonin solution in a cell-free system (HPLC, LC-MS); format: physicochemical; details: melatonin in PBS, UV-doses of 25, 50 and 100 mJ/cm^2
Procedure: as §1, §3
as §4, with “Melatonin photoproducts generation was performed after irradiation at the UV doses of 25, 50, 75 or 100 mJ/cm^2, as indicated in the figures.” left out
Peak areas increased linearly with UV-doses (FIG. 2). […] Product identity was determined by comparison with known standards of melatonin metabolites. […]

HaCaT keratinocytes [4] = assay: Morphology analysis of keratinocytes after UV irradiation; format: cell-based, human; details: melatonin 10^−3 M, 50 mJ/cm^2, 24 hours after irradiation
Procedure: Cell media from overnight incubation was removed and replaced with fresh media containing melatonin at the concentration of 10^−3 M, the maximum effective concentration identified in previous studies (45, 46). […] Irradiation of the Petri dishes was performed with UVR from below, and after irradiation PBS was replaced by fresh culture media for 24 or 48 hrs. Paraely, cells were incubated with or without melatonin, but not subjected to irradiation to exclude effects of melatonin alone.
Digital pictures from six to ten randomly chosen fields per Petri dish for each experimental condition were acquired at different time points after UV exposure (0, 24 and 48 hrs) with a NIKON Eclipse TE300 microscope (Melville, N.Y.). At 24 and 48 hrs after UV exposure, pictures of detached cells were first taken, then detached cells were removed and another set of pictures was acquired to assess the degree of confluency of cells which were still attached to the bottom of the culture dish. Pictures were recorded and analyzed with MetaVue software. Then, keratinocytes were harvested from Petri dishes by trypsinization, washed three times with ice-cold PBS and frozen in −80° C. until further processing.

HaCaT keratinocytes [5] = assay: Mitochondrial membrane potential (ΔΨ) using JC-1, confocal microscopy; format: cell-based, human; details: for mitochondrial membrane potential, melatonin alone: melatonin 10−4 M, without UV-exposure
Procedure: Mitochondrial inner membrane potential (ΔΨ) in immortalized HaCaT keratinocytes was measured by using confocal microscopy with 5,5′,6,6′tetrachloro-1,1′,3,3′-tetraethylbenzimidazol-carbocyanine iodide (JC-1) (Molecular Probes, Carlsbad, Calif.) (66). JC-1 selectively enters mitochondria and aggregates when the membrane potential values exceed 80-100 mV, causing a shift in fluorescence from 530 nm (green) to 590 nm (red). For experiments, human HaCaT keratinocytes were seeded in Lab-Tek II 8-well chambered coverglass (Nalge Nunc, Inc., Naperville, Ill.) and grown until 90-100% of confluence. Culture media were removed and cells washed with PBS and then incubated for 30 or 120 min with melatonin at […]. Stock solution of melatonin was dissolved in DMEM and added to the culture media. After incubation, cells were washed twice with PBS and subjected to irradiation with UVB at the dose of 50 mJ/cm^2 or incubated with serum free medium containing 1 mM H2O2 for 1 h. After irradiation cells were incubated in DMEM containing 5% FBS and supplemented with JC-1 (2.5 μg/ml) for 30 min at 37° C. […] Images were acquired from three to six randomly chosen fields for each experimental condition showing nuclear cross-section. Green and red channels were merged and ratio of red to green channel was shown in blue.
Bands of immunoblots were evaluated by measurement of density with Scion Image analysis software (NIH). Density values from two or three experiments were taken for calculation of mean values and standard deviation. For statistical analysis of mitochondrial membrane potential, images showing nuclear cross-section were acquired from three to six randomly chosen fields -or each experimental condition. Ration of red/green emission was calculated using ImageJ software (NIH, Bethesda, […].) and differences were analysed with Student's t-test and were considered significant when p-value was <0.05.

HaCaT keratinocytes [6] = details: human
Excerpt: HaCaT keratinocytes were cultivated in Dulbecco's Modified Eagle Medium (DMEM) supplemented with glucose, L-glutamine, pyridoxine hydrochloride (Gibco, Invitrogen Life Technologies Carlsbad, Calif.), 10% fetal bovine serum (Mediatech Inc., Herndon, Va.) and 1% penicillin/streptomycin/amphotericin antibiotic solution (Sigma Chemical Co., St. Louis, Mo.). Cells were trypsinized from culture flasks and seeded in 10 cm petri dishes (Corning Inc., Corning, N.Y.) at a density of 10^6 cells/dish and incubated overnight. The next day, after confluence of 80-90% was reached, cells were washed once with PBS to remove remnants of media, and incubation with melatonin in PBS was performed for 30 min. Parallel control dishes were incubated with PBS without melatonin. After incubation the Petri dishes were irradiated from below with UVR. […]
Cell extracts were briefly sonicated in 50 μl absolute ethanol in a Branson 5200 waterbath at ambient temperature (Branson Ultrasonics Corporation, Danbury, Conn.). […] Column eluate was monitored by Model 2487 UV detector (275 nm) and Model 991 photodiode array detectors and the data stored electronically for subsequent interpretation.

HaCaT keratinocytes [7] = details: [3H]-labeled melatonin tracer only; cited from earlier work

## COc1ccc2[nH]c(O)c(CCNC(C)=O)c2c1 [2-hydroxymelatonin]
HaCaT keratinocytes [1]
  intracellular level in untreated keratinocytes, initial (basal): 7.8 pmoles/1000 cells
  intracellular level in untreated keratinocytes after 24 hrs: 20.4 pmoles/1000 cells

## COc1ccc2[nH]cc(CCNC(C)=O)c2c1O [4-hydroxymelatonin]
HaCaT keratinocytes [2]; basal conditions and after UVR exposure
  intracellular detection: not detected intracellularly

## COc1cc2c(CCNC(C)=O)c[nH]c2cc1O [6-hydroxymelatonin]
HaCaT keratinocytes [1]
  intracellular level in untreated keratinocytes, initial (basal): 53.4 pmoles/1000 cells
  intracellular level in untreated keratinocytes after 24 hrs: 16.8 pmoles/1000 cells

## COc1ccc(NC=O)c(C(=O)CCNC(C)=O)c1 [AFMK, N^1-acetyl-N^2-formyl-5-methoxykynuramine]
[3]
  relative HPLC peak size of photoproduct: largest peak
HaCaT keratinocytes [1]
  intracellular level in untreated keratinocytes, initial (basal): 17.4 pmoles/1000 cells
  intracellular level in untreated keratinocytes after 24 hrs: 33.6 pmoles/1000 cells
HaCaT keratinocytes [2]; HaCaT preincubated with 10−3 M melatonin, UVR
  time of highest level in supernatants post UV exposure: 40 min
HaCaT keratinocytes [2]; cells not preincubated with melatonin
  AFMK level in supernatants, irradiated vs nonirradiated: ~13 fold
HaCaT keratinocytes [2]; melatonin preincubation, 50 mJ/cm^2
  AFMK level in supernatants, irradiated vs non-irradiated: ~100 fold
HaCaT keratinocytes [2]; melatonin preincubation, UVR
  AFMK level in cell lysates, irradiated vs nonirradiated: approximately 3.5 fold
HaCaT keratinocytes [2]; not preincubated with melatonin
  AFMK level in native keratinocytes (lysates), UV-stimulated increase: 1.9 fold

## COc1ccc(N)c(C(=O)CCNC(C)=O)c1 [AMK, N^1-acetyl-5-methoxykynuramine]
HaCaT keratinocytes [2]
  detection of AMK after UVR exposure: could not be detected

## COc1ccc2[nH]cc(CCNC(C)=O)c2c1 [melatonin]
HaCaT keratinocytes [4]
  keratinocyte confluency and empty spaces after UV irradiation: confluency was higher compared to non-treated control and no empty spaces were seen
HaCaT keratinocytes [5]; melatonin 10^−3 to 10^−6 M for 30 or 120 min, UVB 50 mJ/cm^2
  UV-induced mitochondrial membrane potential reduction, red/green fluorescence ratio: attenuated by melatonin in a dose dependent manner; also recorded: prevented membrane potential reduction
HaCaT keratinocytes [5]; melatonin 10^−4 M, H2O2 1 mM, 60 minutes
  H2O2-induced reduction of mitochondrial membrane potential: significantly counteracted
HaCaT keratinocytes [5]
  mitochondrial membrane potential, melatonin alone: no change of mitochondrial membrane potential
HaCaT keratinocytes [5]; listed as Melatonin
  mitochondrial membrane potential, melatonin alone: did not influence mitochondrial membrane potential
HaCaT keratinocytes [5]; preincubation with melatonin 10^−4 M, UVB 50 mJ/cm^2
  mitochondrial membrane potential after UVB (JC-1 images): preserved mitochondrial membrane potential
[3]
  photoproducts generated by UV irradiation of melatonin solution: generated four compounds
HaCaT keratinocytes [1]
  intracellular level in untreated keratinocytes, initial (basal): 146.0 pmoles/1000 cells
  intracellular level in untreated keratinocytes after 24 hrs: 65.0 pmoles/1000 cells
HaCaT keratinocytes [2]; human
  melatonin level in supernatants after UV exposure, % of nonirradiated melatonin solution: 99.7%
HaCaT keratinocytes [6]
  intracellular melatonin concentration: approximately 10−6 M
  uptake of melatonin into the cell, ratio of intra- to extracellular melatonin (% of applied levels): 0.125%
HaCaT keratinocytes [7]
  melatonin uptake in HaCaT keratinocytes (Nickel and Wohlrab): 0.097%
